Twelve compounds from paper PMC10485894, “Corticosteroids as Selective and Effective Modulators of Glycine Receptors” (ACS Chemical Neuroscience, 2023) can be followed below.

Where two headings read alike, the source gives them in different places.

The test system of experiment [1] is GABA-A receptors (GABAAR). Put plainly: GABA-activated chloride current (IGABA), whole-cell patch clamp in isolated cerebellar Purkinje cells. (In general: The patch-clamp technique gives a direct electrical read-out from membranes.)
Method: (§1) First, the ability of steroids to affect the holding current at the voltage-clamp regime was tested. […] Next, the influence of all of the compounds on IGABA and IGly was evaluated. […] The latter effect was quantified by the change in the time constant of the IGly decay (IGly τdes).
(§2) The cells were isolated from rat brain slices as described in detail elsewhere.[47] Briefly, the slices (200–500 μm) of Wistar rat (11–14 days of age) hippocampus or cerebellum were incubated at room temperature for at least 2 h in a solution containing the following components (in mM): 124 NaCl, 3 KCl, 2 CaCl2, 2 MgSO4, 25 NaHCO3, 1.3 NaH2PO4, and 10 D-glucose, pH 7.4. The saline was continuously stirred and bubbled with carbogen (95% O2 + 5% CO2). Single pyramidal neurons from the hippocampal CA3 area or Purkinje cells from sagittal slices of the cerebellum were isolated by a vibrating fused glass pipet with a spherical tip.
(§3) Transmembrane currents were recorded using a conventional patch-clamp technique in the whole-cell configuration. […] The solution in the recording pipet contained the following (in mM): 40 CsF, 100 CsCl, 0.5 CaCl2, 5 EGTA, 3 MgCl2, 4 NaATP, 5 HEPES, pH 7.3. The composition of the extracellular solution was as follows (in mM): 140 NaCl, 3 KCl, 3 CaCl2, 3 MgCl2, 10 D-glucose, 10 HEPES hemisodium, pH 7.4. The speed of perfusion was 0.6 mL/min. Recording of the currents was performed using an EPC7 patch-clamp amplifier (HEKA Elektronik, Germany). The holding potential was maintained at −70 mV. Transmembrane currents were filtered at 3 kHz, stored, and analyzed with IBM-PC computer, using homemade software.
(§4) Statistical analysis was performed with Prism Graphpad software. […] N = 6–8 cells from 3 animals for every average value. […] The EC50 value for steroid potentiation of the IGABA was determined using the equation: Y = Bottom + (Top – Bottom)/[1 + (EC50/C)^n], where Bottom and Top are current amplitudes measured in the control solution and in the presence of steroid, respectively, C is the concentration of steroid, EC50 is the half-maximal stimulating concentration, and n is the slope factor (Hill coefficient).
The test system of experiment [2] is glycine receptors (GlyR). Description: Glycine-activated chloride current (IGly), whole-cell patch clamp in isolated hippocampal pyramidal neurons.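 As to all read-outs here: rat CA3 hippocampal pyramidal cells, whole-cell voltage clamp held at −70 mV, steroids tested over 0.01–100 µM, 6–8 cells from 3 animals per mean value.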 To be noted: for Ipeak max (maximum inhibition attainable) / IC50 / τdes max (maximum inhibition attainable) / normalized charge (Q) of IGly, maximum inhibition (max): 100 μM glycine; for Ipeak max (maximum inhibition attainable) / τdes max (maximum inhibition attainable) / normalized charge (Q) of IGly, maximum inhibition (max): fraction; for IGly peak, effect at 10 μM / IGly τdes, effect at 10 μM: steroid 10 μM coapplied with 100 μM glycine; for IGly peak, effect at 10 μM: hippocampal neurons; for IGly τdes, effect at 10 μM: time constant of IGly decay; for τdes max (maximum inhibition attainable): time constant of desensitization of IGly.
Method: as §1, §2, §3, §4

Where [3] appears, read: read-out: Ipeak IC50, peak amplitude of IGly.
Where [4] appears, read: read-out: τdes IC50, acceleration of IGly desensitization.
Setting [5] is: steroid 10 μM coapplied with GABA (2 or 5 μM), Purkinje cells.
The mark [6] stands for this setting: read-out: normalized charge (Q) of IGly, IC50, area under the IGly curve.

Take `C[C@]12CC[C@@H](O)C[C@H]1CC[C@@H]1[C@@H]2[C@@H](O)C[C@]2(C)[C@@H](C(=O)CO)CC[C@@H]12` [3α5β-CORT, 3α,11β,21-Trihydroxy-5β-pregnan-20-one]: in experiment [1], the “IGABA peak amplitude, % of control” value was 133 ± 8 % of the control; the “effect on maximal GABA current” value is reported as “did not change”; the “maximum effect (max) on IGABA” value is reported as 198 ± 11 % of the control. Further, the “threshold concentration for potentiation of IGABA” value in experiment [1] (2 μM GABA) was found to be 10 µM. The “IGABA, % of control” value in experiment [1] (50 μM steroid, 2 μM GABA) is listed as 172 ± 18 % of control. In addition, the “IGABA, % of control” value in experiment [1] (50 μM steroid, 5 μM GABA) is reported as 139 ± 16 % of control. Besides, the “Ipeak max (maximum inhibition attainable)” value in experiment [2] (peak amplitude of IGly) came to 0.44 ± 0.1. Besides, in experiment [2] (setting [3]), the IC50 (as a rule, the concentration at which inhibition is half-maximal) stood at 23 ± 9.6 µM. In addition, in experiment [2] (setting [4]), the 50% inhibitory concentration (IC50) came to 15.2 ± 6.2 µM. In experiment [2], the “IGly peak, effect at 10 μM” value is given as “No effect”; the “IGly τdes, effect at 10 μM” value is on record as -24%; the “τdes max (maximum inhibition attainable)” value stood at 0.56 ± 0.08.

Turning to `C[C@]12CCC(=O)C=C1CC[C@@H]1[C@@H]2[C@@H](O)C[C@@]2(C)[C@H]1CC[C@]2(O)C(=O)CO` [Cortisol, 11β,17α,21-Trihydroxypregn-4-ene-3,20-dione], the “IGABA peak, effect at 10 μM” value in experiment [1] (setting [5]) is given as “No effect”. In addition, the “Ipeak max (maximum inhibition attainable)” value in experiment [2] (peak amplitude of IGly) amounted to 0.49 ± 0.1. In addition, in experiment [2] (setting [3]), the 50% inhibitory concentration (IC50) was found to be 20.2 ± 9.8 µM. Also, the IC50 in experiment [2] (setting [4]) amounted to 0.63 ± 0.02 µM. In experiment [2], the “IGly peak, effect at 10 μM” value is on record as -23%; the “IGly τdes, effect at 10 μM” value is given as -40%; the “τdes max (maximum inhibition attainable)” value is 0.42 ± 0.05.

As for `C[C@]12CC[C@H](O)CC1=CCC1C2CC[C@@]2(C)C1CC[C@]2(O)C(=O)CO` (stereo partly drawn) [17α,21-diOH-PREG, 3β,17α,21-Trihydroxypregn-5-en-20-one], the “IGABA peak, effect at 10 μM” value in experiment [1] is “No effect”. Further, in experiment [2] (area under the IGly curve), the “normalized charge (Q) of IGly, maximum inhibition (max)” value worked out at 0.52 ± 0.01. In addition, in experiment [2] (peak amplitude of IGly), the “Ipeak max (maximum inhibition attainable)” value stood at 0.45 ± 0.1. For the same compound, the IC50 in experiment [2] (setting [3]) turned out to be 7.2 ± 2.6 µM. Further, the concentration for half-maximal inhibition (IC50) in experiment [2] (setting [6]) worked out at 0.73 ± 0.06 µM. The concentration for half-maximal inhibition (IC50) in experiment [2] (setting [4]) came to 0.39 ± 0.05 µM. In experiment [2], the “IGly peak, effect at 10 μM” value is recorded as -27%; the “IGly τdes, effect at 10 μM” value was -76%; the “τdes max (maximum inhibition attainable)” value was 0.77 ± 0.03.

In the case of `C[C@]12CC[C@H]3[C@@H](CCC4=CC(=O)CC[C@@]43C)[C@@H]1CC[C@@H]2C(=O)CO` [11-deoxy-CORT, 21-Hydroxypregn-4-ene-3,20-dione], in experiment [1], the “IGABA peak, effect at 10 μM” value is reported as “No effect” and the “amplitude of IGABA, % of control (inhibition)” value is on record as 70 ± 3 % of the control. Moreover, the “effect on IGly at low glycine” value in experiment [2] (1 μM steroid, 25 μM glycine (EC10)) is “did not affect”. For the same compound, in experiment [2] (50 μM steroid, 25 μM glycine (EC10)), the “decrease in the peak amplitude of IGly” value is listed as 45 ± 7%. In addition, the “Ipeak max (maximum inhibition attainable)” value in experiment [2] (peak amplitude of IGly) is given as 0.67 ± 0.2. The IC50 in experiment [2] (setting [3]) worked out at 22.9 ± 9.4 µM. The IC50 in experiment [2] (setting [4]) is 12.2 ± 3.7 µM. In addition, in experiment [2], the “IGly peak, effect at 10 μM” value is “No effect”; the “IGly τdes, effect at 10 μM” value is given as -32%; the “τdes max (maximum inhibition attainable)” value is reported as 0.72 ± 0.08.

For the compound `C[C@]12CCC(=O)C=C1CC[C@@H]1[C@@H]2CC[C@@]2(C)[C@H]1CC[C@]2(O)C(=O)CO` [11-Deoxycortisol, 17α,21-Dihydroxypregn-4-ene-3,20-dione], in experiment [1] (100 μM steroid, 5 μM GABA), the “amplitude of IGABA, % of control (inhibition)” value is 58 ± 5 % of the control. Also, the “IGABA peak, effect at 10 μM” value in experiment [1] (setting [5]) is “No effect”. Besides, the “Ipeak max (maximum inhibition attainable)” value in experiment [2] (peak amplitude of IGly) amounted to 0.69 ± 0.2. For the same compound, in experiment [2] (setting [3]), the IC50 stood at 21.4 ± 7.6 µM. In experiment [2] (setting [4]), the IC50 was found to be 13.8 ± 6.3 µM. Also, in experiment [2], the “IGly peak, effect at 10 μM” value is given as -26%; the “IGly τdes, effect at 10 μM” value is -21%; the “τdes max (maximum inhibition attainable)” value is listed as 0.50 ± 0.08.

Regarding `C[C@]12CCC(=O)C[C@@H]1CC[C@@H]1[C@@H]2CC[C@]2(C)[C@@H](C(=O)CO)CC[C@@H]12` [5α-CORT, 21-Hydroxy-5α-pregnane-3,20-dione], the “IGABA peak, effect at 10 μM” value in experiment [1] is on record as “No effect”. Moreover, in experiment [2] (peak amplitude of IGly), the “Ipeak max (maximum inhibition attainable)” value came out at 0.86 ± 0.2. The concentration for half-maximal inhibition (IC50) in experiment [2] (setting [3]) was found to be 32 ± 12.6 µM. The half-inhibitory concentration (IC50) in experiment [2] (setting [4]) was 0.71 ± 0.02 µM. In addition, in experiment [2], the “IGly peak, effect at 10 μM” value is on record as “No effect”; the “IGly τdes, effect at 10 μM” value was -36%; the “τdes max (maximum inhibition attainable)” value is 0.37 ± 0.04.

Regarding `C[C@]12CCC(=O)C=C1CC[C@@H]1[C@@H]2C(=O)C[C@@]2(C)[C@H]1CC[C@]2(O)C(=O)CO` [Cortisone, 17α,21-Dihydroxypregn-4-ene-3,11,20-trione], the “IGABA peak, effect at 10 μM” value in experiment [1] (setting [5]) was “No effect”. The “Ipeak max (maximum inhibition attainable)” value in experiment [2] (peak amplitude of IGly) is on record as 0.57 ± 0.1. Also, in experiment [2] (setting [3]), the IC50 is 13.6 ± 5.5 µM. Besides, the IC50 in experiment [2] (setting [4]) was 10.3 ± 3.4 µM. Moreover, in experiment [2], the “IGly peak, effect at 10 μM” value is reported as -25%; the “IGly τdes, effect at 10 μM” value is listed as -24%; the “τdes max (maximum inhibition attainable)” value turned out to be 0.48 ± 0.06.

In the case of `C[C@]12CCC(=O)C[C@H]1CC[C@@H]1[C@@H]2CC[C@]2(C)[C@@H](C(=O)CO)CC[C@@H]12` [5β-CORT, 21-Hydroxy-5β-pregnane-3,20-dione], the “IGABA peak, effect at 10 μM” value in experiment [1] was “No effect”. Moreover, the “normalized charge (Q) of IGly, maximum inhibition (max)” value in experiment [2] (area under the IGly curve) came to 0.96 ± 0.15. For the same compound, in experiment [2] (peak amplitude of IGly), the “Ipeak max (maximum inhibition attainable)” value was 0.85 ± 0.3. In addition, in experiment [2] (setting [3]), the half-inhibitory concentration (IC50) turned out to be 29.3 ± 9.9 µM. Besides, the IC50 in experiment [2] (setting [6]) was 37 ± 13 µM. The IC50 in experiment [2] (setting [4]) turned out to be 13.1 ± 5.8 µM. For the same compound, in experiment [2], the “IGly peak, effect at 10 μM” value is recorded as “No effect”; the “IGly τdes, effect at 10 μM” value is given as -27%; the “τdes max (maximum inhibition attainable)” value is on record as 0.61 ± 0.09.

As to `NCC(=O)O` [glycine], the EC50 (commonly the concentration at which the effect is half-maximal) in experiment [2] (read-out: EC50 of glycine for IGly, 600–1000 ms application) was 90 ± 7 µM.

`C[C@]12C[C@H](O)[C@H]3[C@@H](CCC4=CC(=O)CC[C@@]43C)[C@@H]1CC[C@@H]2C(=O)CO` [CORT, 11β,21-Dihydroxypregn-4-ene-3,20-dion]: in experiment [1] (setting [5]), the “IGABA peak, effect at 10 μM” value was “No effect”. Further, the “Ipeak max (maximum inhibition attainable)” value in experiment [2] (peak amplitude of IGly) was found to be 0.54 ± 0.1. For the same compound, the 50% inhibitory concentration (IC50) in experiment [2] (setting [3]) was 12.6 ± 4.8 µM. Besides, the 50% inhibitory concentration (IC50) in experiment [2] (setting [4]) worked out at 0.43 ± 0.05 µM. Also, in experiment [2], the “IGly peak, effect at 10 μM” value is -26%; the “IGly τdes, effect at 10 μM” value is given as -64%; the “τdes max (maximum inhibition attainable)” value came to 0.64 ± 0.02.

In the case of `CN1CCc2cc3c(cc2[C@H]1[C@@H]1OC(=O)c2c1ccc1c2OCO1)OCO3` [bicuculline], the “effect on IGABA” value in experiment [1] was “reversibly blocked”.

Turning to `C[C@]12CC[C@@H](O)C[C@@H]1CC[C@@H]1[C@@H]2[C@@H](O)C[C@]2(C)[C@@H](C(=O)CO)CC[C@@H]12` [3α5α-CORT, 3α,11β,21-Trihydroxy-5α-pregnan-20-one], in experiment [1], the “IGABA, % of control” value is given as 120 ± 16 % of control; the “effect on maximal GABA current” value is “did not change”; the “maximum effect (max) on IGABA” value is 420 ± 19 % of the control; the “potentiating effect on IGABA at higher GABA concentrations” value is “not observed”. The “threshold concentration for potentiation of IGABA” value in experiment [1] (2 μM GABA) was 5 µM. Moreover, in experiment [1] (5 μM steroid, 2 μM GABA), the “IGABA peak amplitude, % of control” value was 150 ± 8 % of the control. Besides, the “IGABA, % of control” value in experiment [1] (50 μM steroid, 2 μM GABA) is recorded as 371 ± 16 % of control. In experiment [1] (50 μM steroid, 5 μM GABA), the “IGABA, % of control” value is 156 ± 15 % of control. The “Ipeak max (maximum inhibition attainable)” value in experiment [2] (peak amplitude of IGly) is 0.51 ± 0.1. For the same compound, the concentration for half-maximal inhibition (IC50) in experiment [2] (setting [3]) came to 11.8 ± 5.7 µM. Moreover, the half-inhibitory concentration (IC50) in experiment [2] (setting [4]) was 0.72 ± 0.03 µM. In addition, in experiment [2], the “IGly peak, effect at 10 μM” value is on record as -26%; the “IGly τdes, effect at 10 μM” value is on record as -54%; the “τdes max (maximum inhibition attainable)” value was 0.59 ± 0.08.
